The record followed here is patent US6159953A, “Anti-malarial composition and method of use” (Catholic University of America, priority 1992, dated 2000).

Where two headings read alike, the source gives them in different places.

Data set [1] concerns Plasmodium falciparum, Indochina clone W2. The data set can be described thus: microbe, parasite or virus in culture. The following applies: for IC50: Plasmodium falciparum. The procedure:
In the antimalarial experiment with parasites, incorporation of radioactivity from [G-^3 H]-hypoxanthine into nucleic acids served as a measure of parasite proliferation. […] Each data point represents an average of two determinations. In the study of toxicity to human cells, proliferation of cells was determined directly by measuring the number of viable cells per well. […] Each data point represents an average of two determinations. 5-fluoro-orotate (.circle-solid.), 5-fluorouracil (.box-solid.), 5-fluorouridine (.tangle-solidup.), and 5-fluoro-2'-deoxyuridine (.diamond-solid.).
(§1) Half shaded symbols represent overlapping data points.
3. Effects of pyrimidine analogues alone or in combination with normal pyrimidine bases or nucleosides or with amino acid derivatives can be tested in malaria parasite-infected erythrocytes. Varying concentrations of pyrimidine analogues in culture medium are added to individual wells of microtitre plates [Desjardins, R. E. et al., Antimicrob. […] Parasitemic erythrocytes in culture medium are added to each well. […] As an alternative to adding a radioactive precursor of nucleic acid biosynthesis, the end point for determining the effects of added drugs can be the incorporation of a radioactive amino acid, e.g., [U-^14 C]-isoleucine, into parasite protein.
Fluoropyrimidines, dispersed in 25 μl of culture medium, were added to individual wells of a 96-well microtitre plate. […] Finally, the incorporation of 0.5 μCi of [G-^3 H]hypoxanthine (1 Ci/mmol) into nucleic acids in each well was determined; this served as a measure of parasite proliferation.

The subject of data set [2] is HT-1080 human fibrosarcoma cells. The data set can be described thus: Toxicity to cultured HT-1080 cells, number of viable cells. The data set is classed as cell-based. Particulars: for IC50: Homo sapiens. The procedure:
Each data point represents an average of two determinations. […] Each data point represents an average of two determinations.
as §1
Toxicity of pyrimidine analogues to cultured human cells is determined as follows. Mammalian cells are seeded into culture plate wells, and growth medium is added. The following day, fresh culture medium containing the appropriate pyrimidine analogues is added to the wells, and the plates incubated for a period of time and at a temperature appropriate to the cell line and the experimental requirements. Thereafter, the number of cells in each well is determined. […] Cells that grow in suspension (e.g., HL-60 and L-1210 cells) are transferred to centrifuge tubes, pelleted at low speed, washed, and the viability determined as above.
HT-1080 cells were seeded into 6-well culture plates at a density of 50,000 cells per 9.6 cm^2 well. Each well contained 2.5 ml of growth medium. […] After 1 minute, the detached cells were suspended in 1.0 ml of EMEM and collected by centrifugation at 300×g for 3 minutes. […] The concentrations of viable cells were determined in a hemocytometer.

Data set [3] concerns HeLa S3 human cervix epithelioid carcinoma cells. Briefly: Toxicity to cultured HeLa S3 cells, number of viable cells. Format: cell-based. An excerpt:
2. Effects of orotate analogues on cell viability and the ability to synthesize nucleic acids from radioactive precursors, and the rescuing effects of normal pyrimidine bases or nucleosides or amino acid derivatives such as histidinol, can be tested in human-derived tissue culture cell lines. Human HT-1080 human sarcoma cells [Rusheed, S., et al., Cancer, 33:1027-30 (1974)], human diploid IMR-90 cells [Nichols, W. W., et al., Science, 196:60-3 (1977)], human cervical […] HeLa S3 cells [Puck, T. T., et al., J. Exp. Med., 103:273-84 (1956)], HL-60 human myeloid leukemia cells [Collins, S. J., et al., Nature, 270:347-9 (1977)], and mouse leukemia L-1210 cells [Moore, G. E., J. Nat. […] The growth medium most suitable for each cell line can be determined by reference to the publications cited above: briefly, HT-1080 cells are maintained in Eagle's Minimal Essential Medium (EMEM) supplemented with 5% fetal bovine serum (FBS) and 2 mM L-glutamine; IMR-90 cells are grown in EMEM supplemented with 10% FBS, 10 mM Hepes buffer, 0.21% NaHCO3, and 2 mM L-glutamine. […]
Toxicity of pyrimidine analogues to cultured human cells is determined as follows. […] Thereafter, the number of cells in each well is determined. […] Cells that grow in suspension (e.g., HL-60 and L-1210 cells) are transferred to centrifuge tubes, pelleted at low speed, washed, and the viability determined as above. […]

Usually IC50 stands for the midpoint of a concentration-inhibition curve. With `O=C(O)c1[nH]c(=O)[nH]c(=O)c1F` [5-fluoro-orotate], in data set [1] (Indochina clone W-2, 48 h, 1 mM uridine (FIG. 2)), the “effect of uridine on cytotoxicity towards malarial parasites” value was “no effect”. The IC50 in data set [1] (W2) is 0.006 ± 0.0017 µM; in data set [1] (W2, 48 h), 0.006 µM; in data set [2] (HT-1080, 48 h, read-out: IC50 (50% inhibition)) it was around 10 µM; in data set [2] (HT-1080, read-out: IC50 With 1 mM Uridine) it was 50 µM; in data set [2] (HT-1080, read-out: IC50 Without Uridine), 10 µM; in data set [3] (HeLa S3, with 1 mM uridine, read-out: IC50 With 1 mM Uridine), 3.5 µM. Moreover, the IC50 in data set [3] (HeLa S3, without uridine, read-out: IC50 Without Uridine) turned out to be 2 µM. For the same compound, the “times more active than chloroquine” value in data set [1] (multidrug-resistant Indochina clone) was 21 times. Also, in data set [2] (HT-1080, 48 h, simultaneous 1 mM uridine (FIG. 2)), the “decrease of cytotoxicity by 1 mM uridine” value is 5 -fold.
